According to a melting point compilation (Tetko et al.; mined from patent text by program, amines drawn as free bases though some values may be those of a salt):

`Cc1c[nH]c(-c2ccc(OCC(O)CNC(C)(C)C)cc2)n1` (configuration not stated) gave a melting point of 202 to 203 °C. For `CNCCCc1nc2ccccc2[nH]1`, the melting point was 134 to 136 °C. For `COc1cc2c(cc1O)CCC(=O)N2Cc1cc(OC)c(OC)c(OC)c1`, the melting point was 157 to 158 °C. With `OC(CNCCCCCCOCCCc1ccc(N2CCCCC2)cc1)c1ccc2c(n1)COC(c1ccccc1)O2` (configuration not stated) the melting point was 75 to 76 °C. In the case of `C=CCN1C(=O)c2ccccc2Oc2nc(Cl)ccc21`, the melting point was 110 to 112 °C. For `CCOC1=NS(=O)(=O)c2cc(NC(=O)CC)ccc21`, the melting point was 188 to 192 °C. `CC(C)c1ccc(NC(=O)c2ccc(C(=O)O)cn2)cc1C(C)C` showed a melting point of 188 to 190 °C. Compound `CCCCC(=O)NC(C(=O)OCc1ccccc1)C(C)C` (configuration not stated) has a melting point of 118 to 127 °C. `O[C@H](CCl)COc1ccc(OCc2ccccc2)cc1` gave a melting point of 78 to 80 °C. `COc1ccc2c3c(c(=O)oc2c1OC)CN(CC(C)=O)CC3` gave a melting point of 145 to 147 °C. In the case of `O=Cc1ccc2c(c1)Cc1cc(Br)ccc1-2`, the melting point was 161 to 170 °C. Compound `CCc1nc2c(N)nc3ccccc3c2n1CCCS(C)(=O)=O` has a melting point greater than 250 °C. For `CN1Cc2c(-c3noc(CN4CCCCC4)n3)ncn2-c2ccccc2C1=O`, the melting point was 167 to 168 °C. `COc1ccc(-n2nc(Sc3ccc(Cl)c(Cl)c3)c(C)c(C#N)c2=O)cc1` showed a melting point of 168 to 171 °C. `CC(C)n1nc(-c2sc(NC(=O)Cc3ccccc3)nc2-c2ccccc2)ccc1=O` gave a melting point of 250 to 252 °C. In the case of `COCC(C)Oc1cc(Oc2ccc(S(C)(=O)=O)cc2)cc2cc(C3=NCC(CC(C)(C)O)S3)[nH]c12` (configuration not stated), the melting point was 112 to 113 °C. Work on `Cc1ccc(C(=O)/C=C/c2cc(C(C)(C)C)c3oc(=O)c(C(=O)O)cc3c2)cc1` yielded a melting point of 185 to 186 °C. Compound `Cc1ccc(Cn2nc(Br)c([N+](=O)[O-])c2NCc2ccccc2)cc1` has a melting point of 108 °C. For `COC(=O)C1=C(C#N)NC(C)=C(C(=O)OC(C)C)C1c1cccc([N+](=O)[O-])c1` (configuration not stated), the melting point was 120 to 122 °C. For `O=C(O)CCCOc1ccc2nc3c(cc2c1)CC(=O)N3`, the melting point was 260 °C. With `CN1CC(=O)Nc2ccccc21` the melting point was 132 °C. Compound `O=C(O)c1cc2sccc2cn1` has a melting point of 212 °C. `CCOC(=O)c1sc(NC(C)=O)c(C(=O)OCC)c1C` gave a melting point of 130 to 131 °C. For `CC(CCCC(C)(C)O)C1CCC2C3=CC=C4CC(O)CCC4(C)C3CCC21C` (configuration not stated), the melting point was 122 to 125 °C. `O=C(CBr)c1ccc(OCc2ccccc2)c(OCc2ccccc2)c1Cl` showed a melting point of 94 to 96 °C. Work on `CNc1nc(-c2cccc(NC(=O)C3CC3)c2)c2cc(OC)c(OC)cc2n1` yielded a melting point of 205 to 207 °C. For `COc1cc(COc2nn(-c3ccccc3)cc2C=O)ccc1OCc1nc(-c2ccco2)oc1C`, the melting point was 137 to 138 °C. For `NC(=O)[C@@H]1C[C@@H]2C[C@@H]2N1C(=O)[C@@H](NC(=O)OCc1ccccc1)C12CC3CC(CC(O)(C3)C1)C2`, the melting point was 105 to 106 °C. Compound `Cc1cc(NCCO)c2[nH]nc(C)c2n1` has a melting point of 225 to 230 °C. Work on `Cc1nnc2n1-c1ccc(Cl)cc1C(N1CCCC1)=NC2` yielded a melting point of 222 to 225 °C. Compound `CC(=O)Nc1ccc(F)cc1OCc1ccccc1` has a melting point of 136 to 138 °C. `O=C(NCc1cccnc1)C1CCCCC1` gave a melting point of 90 °C. With `Cn1ncc2c(=O)n3c(nc21)SCC3` the melting point was 257 to 258 °C. Work on `CCCS(=O)(=O)Nc1cc(OC[C@@H](O)CNC2CCN(c3ccc(C(=O)OCC)cc3)CC2)ccc1O` yielded a melting point of 63 to 65 °C. With `CC(C)(CO)NS(=O)(=O)c1cc(NC(=O)c2cnn3c(C(F)(F)F)cc(-c4ccc(C(F)(F)F)c(OCC(F)(F)F)c4)nc23)c(Cl)s1` the melting point was 264 °C. `N#CSCC(I)=C(I)CSC#N` gave a melting point of 190 °C. Compound `CC(C)OC(=O)c1cc(NC(=O)c2c(Cl)c(Cl)c(Cl)c(Cl)c2C(=O)O)ccc1Cl` has a melting point of 178 to 179 °C. Work on `Cc1cc(SC(C)C)c(NC(=O)CCCSc2nc3ccccc3o2)c(SC(C)C)n1` yielded a melting point of 128 to 129 °C. Compound `N#Cc1ccc2[nH]c(-c3ccc(-c4ccc(C#N)c(F)c4)cc3)nc2c1` has a melting point of 302 to 305 °C. Work on `CC(c1ccc(F)cc1)N1CCC(n2cnc3ccccc3c2=O)CC1` (configuration not stated) yielded a melting point of 179 to 180 °C. With `N#Cc1c(SCCl)nsc1SCCl` the melting point was 92 to 93 °C. `CC(=O)c1cc2c(s1)CCc1cc(=O)n(-c3ccc(C)cc3)nc1-2` gave a melting point of 240 to 242 °C. Compound `O=C1C(=O)c2ccc(F)cc2C2=C1SCC1(CCN(CC(O)Cc3ccccc3)CC1)O2` (configuration not stated) has a melting point of 76 to 77 °C. `O=C(Cn1cnc2cc(-c3ccc(Cl)cc3)sc2c1=O)c1ccc2c(c1)CCN(C(=O)C(F)(F)F)CC2` showed a melting point of 285 to 287 °C. For `O=CN(N=Cc1cccnc1)c1ccccc1`, the melting point was 129 to 132 °C. In the case of `COc1ccc(Cl)c(Oc2c(Cl)ncnc2NS(=O)(=O)c2ccc(C(C)C)cn2)c1`, the melting point was 174 to 175 °C. `O=C(CC=C(Cl)C1(Cl)OC1=O)c1ccccc1` (configuration not stated) showed a melting point of 121 to 122 °C. `c1cn2cc(-c3cnc4cc[nH]c4c3)cc(Nc3cc4n(n3)CCOC4)c2n1` gave a melting point of 192 to 195 °C. For `CC(C)(C)c1csc(NC(=O)c2ccn3c(=O)c(/C=C/C(=O)O)c(N4CCC(OC(=O)NCCO)CC4)nc3c2)n1`, the melting point was 231 to 234 °C. For `CCCCOC(=O)COc1ccc(C(=O)Nc2ccc(C)cc2Sc2ccccc2-c2nnn[nH]2)cc1`, the melting point was 161 to 162 °C. Work on `CCC12CCC3C4CCC(=O)C=C4CCC3C1CCC2OC` (configuration not stated) yielded a melting point of 117 to 119 °C. In the case of `CC(=O)CNC(=O)Nc1cc(-c2c(-c3ccc(F)c(C)c3)nc3cccnn23)ccn1`, the melting point was 208 to 209 °C. Work on `CN(C)C(=O)c1nc(-c2ccccc2)nc2[nH]c3cc(Cl)ccc3c12` yielded a melting point of 232 to 233 °C. Compound `CC(O)c1ccc(N)c(S(N)(=O)=O)c1` (configuration not stated) has a melting point of 160 to 162 °C. Work on `Cc1ccc([N+](=O)[O-])c2c1C(N1C(=O)c3ccccc3C1=O)CCC2=O` (configuration not stated) yielded a melting point of 220 to 230 °C. For `CC(C)OC(=O)c1cc(N)c(F)c(F)n1`, the melting point was 167 to 168 °C. Work on `CC(CC(=O)O)C(=O)c1ccc(O)cc1` (configuration not stated) yielded a melting point of 122 to 126 °C. With `CC=NN(C(=O)c1ccc(Cl)cc1)c1ccc2c(c1)OCO2` the melting point was 140 to 142 °C. `CC(=O)Nc1cc(C(C)(C)CC(C)(C)C)ccc1O` gave a melting point of 176 to 177 °C. Work on `CCOC(=O)c1cc2c(O)c(C(=O)OCC)n(C)c2nc1C(=O)OCC` yielded a melting point of 129 to 130 °C. With `N#Cc1ccc(N2CCN(CC(=O)O)CC2=O)cc1` the melting point was 120 °C. Compound `CC(C)CC(C=CCC(N)=O)NC(=O)C1CCCN1C(=O)OCc1ccccc1` (configuration not stated) has a melting point of 140 to 142 °C. With `CC(=O)Oc1cc(C(C)C)ccc1C1(OC(C)=O)C(=O)c2cccc([N+](=O)[O-])c2C1=O` (configuration not stated) the melting point was 94 to 98 °C. For `N#Cc1c([N+](=O)[O-])ccc(N2CCCC2)c1Cl`, the melting point was 170 to 173 °C. Compound `C(=C(c1ccccc1)c1ccccc1)C1CCN(CCCCCCCCc2cccnc2)CC1` has a melting point of 54 to 55 °C. `CN1CCN(C2=Cc3cc(Cl)ccc3Oc3ccccc32)CC1` showed a melting point of 119 to 121 °C. In the case of `CC1(C)CC(=O)CC(C)(C)c2cc(Br)ccc21`, the melting point was 104 to 105 °C. `Cc1cc(NC(=O)C2=C(O)CN(C)S(=O)(=O)N2C)no1` showed a melting point of 189 to 192 °C. Compound `CS(=O)(=O)Oc1ccc(-c2sc3cc(OS(C)(=O)=O)ccc3c2C(=O)c2ccc(OCCBr)cc2)cc1` has a melting point of 105 to 107 °C. For `COc1ccc(-c2nc(-c3c[nH]c4ccccc34)[nH]c2-c2ccc(OC)cc2)cc1`, the melting point was 246 °C. In the case of `N#CC(=NO)c1cccc(C(=O)c2ccccc2)c1`, the melting point was 147 to 148 °C. `CCCCCCCCCCCCCCCC(N=C=O)S(=O)(=O)c1ccc2ccccc2c1` (configuration not stated) showed a melting point of 152 to 155 °C.
